Assay: oral administration of norphenephrine and its salts to users: metabolic, appetite, mental and addiction effects
Type: in vivo, human

## NCC(O)c1cccc(O)c1 (centres unmarked) [norphenephrine, Norphenephrine]
After intake
  time until the user experiences a vastly reduced appetite for food: ≤ 30 min
co-administration of caffeine
  interaction with caffeine (metabolic enhancement): synergy between caffeine and norphenephrine is observed
Even at high dosages, compared with amphetamines
  addictive / habituating nature: not addictive, or even habituating
In vivo
  adipose tissue loss versus lean body mass: specifically enhance the loss of adipose tissue while preserving lean body mass
  focus, acuity and psychological outlook: sustained and noticeable effect
  overall metabolic rate: increase a user's overall metabolic rate
Muscle tissue apart from adipose tissue
  insulin sensitivity: specifically increase insulin sensitivity in muscle tissue
No changes to the user's current diet and exercise regimen
  fat mass: noticeable and quantifiable decrease in fat mass
